Reference: publication PMC12621200, “Giving an Enzyme Scissors: Serotonin Derivatives as Potent Organocatalytic Switches for DNA Repair Enzyme OGG1” (Journal of Medicinal Chemistry, 2025)
Read-outs that look alike come from different tables or passages of the source. One block for each compound: values may come before it.

Assays:
NUDT15 = biological target: T1, NUDT15 (Homo sapiens, UniProt Q9NV35); test: Selectivity screen, malachite green assay; format: biochemical; details: compound 30 at 99 µM
T1 construct: made in house
T1 sequence (Q9NV35 1-164): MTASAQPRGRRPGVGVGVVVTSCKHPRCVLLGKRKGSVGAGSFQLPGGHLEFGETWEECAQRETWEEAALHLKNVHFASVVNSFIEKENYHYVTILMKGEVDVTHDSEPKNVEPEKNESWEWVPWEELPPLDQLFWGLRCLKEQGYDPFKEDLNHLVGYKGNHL

NUDT5 = biological target: T2, NUDT5 (Homo sapiens, UniProt Q9UKK9); test: Selectivity screen, malachite green assay; format: biochemical; details: compound 30 at 99 µM
T2 construct: made in house

NUDT22 = biological target: T3, NUDT22 (Homo sapiens, UniProt Q9BRQ3); test: Selectivity screen, malachite green assay; format: biochemical; details: compound 30 at 99 µM
T3 construct: made in house
T3 sequence (Q9BRQ3 1-303): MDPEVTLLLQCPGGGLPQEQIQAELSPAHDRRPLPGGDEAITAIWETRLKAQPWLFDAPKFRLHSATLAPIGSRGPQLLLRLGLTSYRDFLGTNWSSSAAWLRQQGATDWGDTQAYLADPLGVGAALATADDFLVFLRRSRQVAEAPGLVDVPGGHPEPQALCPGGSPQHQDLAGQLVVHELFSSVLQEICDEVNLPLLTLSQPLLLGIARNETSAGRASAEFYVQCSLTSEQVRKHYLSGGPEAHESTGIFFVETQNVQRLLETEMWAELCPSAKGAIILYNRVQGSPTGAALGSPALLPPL

[1] = tested on: panel of DNA glycosylases and NUDIX nucleotide binding proteins; test: Selectivity: lowest IC50 in glycosylase/NUDIX panel divided by OGG1 AC50; format: biochemical; details: lowest IC50 against panel / OGG1 AC50
OGG1 [2] = biological target: T4, OGG1 (Homo sapiens, UniProt O15527); test: NaBH4 Schiff-base trapping assay; format: biochemical; details: AP or 8-oxoG DNA substrates; 6.25 μM TH10785, 6.25 μM 30, 10 μM 38
T4 construct: made in house
T4 sequence (O15527 whole entry): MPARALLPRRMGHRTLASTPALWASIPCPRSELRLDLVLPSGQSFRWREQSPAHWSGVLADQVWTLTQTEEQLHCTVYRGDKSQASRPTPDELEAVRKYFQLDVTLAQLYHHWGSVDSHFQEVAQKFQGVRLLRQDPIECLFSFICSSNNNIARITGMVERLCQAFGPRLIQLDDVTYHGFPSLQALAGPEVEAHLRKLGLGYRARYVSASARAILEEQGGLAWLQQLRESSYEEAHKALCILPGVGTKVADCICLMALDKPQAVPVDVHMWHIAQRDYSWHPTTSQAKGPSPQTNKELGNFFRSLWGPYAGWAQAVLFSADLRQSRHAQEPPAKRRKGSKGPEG

OGG1 [3] = biological target: T4, OGG1; test: Biochemical fluorescence (fluorophore-quencher) assay of OGG1 incision rate, 8-oxoA substrate; details: for AC50: concentration giving 50% of the incision rate of OGG1 with APE1 (2 nM) control; for AC50 (μM): biochemical assay of virtual screening hits (NCI samples), Table S1
Caco-2 cell line = test: Caco-2 permeability assay; format: in vitro ADME
[4] = Caco-2 permeability assay; format: in vitro ADME; details: human, Caco-2, pH 7.4
K249A mutant OGG1 = biological target: T5, K249A mutant OGG1 (Homo sapiens, UniProt O15527, K249A); test: AP-lyase assay on radiolabeled AP-site-containing oligonucleotide (PAGE); format: biochemical; details: Figure S8
T5 construct: made in house
T5 sequence (O15527 whole entry K249A): as the sequence (O15527 whole entry) above, with K249A counted along it

MTH1 = MTH1 (Homo sapiens, UniProt P36639); test: Selectivity screen; format: biochemical; details: compound 30 at 99 µM
APE1 = biological target: T6, APE1 (Homo sapiens, UniProt P27695); test: Selectivity screen; format: biochemical; details: compound 30 at 99 µM
T6 construct: made in house
T6 sequence (P27695 whole entry, species assumed): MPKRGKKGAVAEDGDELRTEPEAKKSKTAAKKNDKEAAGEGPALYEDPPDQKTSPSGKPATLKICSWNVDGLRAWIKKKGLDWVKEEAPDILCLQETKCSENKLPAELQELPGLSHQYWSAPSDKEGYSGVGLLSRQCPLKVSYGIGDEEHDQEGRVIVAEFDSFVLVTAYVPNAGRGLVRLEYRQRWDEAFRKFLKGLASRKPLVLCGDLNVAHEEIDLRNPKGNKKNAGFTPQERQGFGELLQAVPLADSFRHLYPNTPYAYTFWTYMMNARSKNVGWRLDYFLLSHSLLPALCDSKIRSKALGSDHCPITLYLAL

[5] = tested on: BJ-RAS and BJ-TERT cell lines; test: Resazurin cell viability assay for toxicity testing; format: cell-based
OGG1 [6] = biological target: T4, OGG1; test: hOGG1 activity assay on radiolabeled 8-oxoG-containing oligonucleotide (urea-PAGE); format: biochemical; details: for stimulation of OGG1 AP lyase activity (incised substrate after 4 min): 6.25 μM TH10785, 6.25 μM 30, 10 μM 38, 10 nM hOGG1; for incision mode: elimination products of AP-site cleavage
NTHL1 = biological target: T7, NTHL1 (Homo sapiens, UniProt P78549); test: Selectivity screen, glycosylase inhibition in kinetic mode; format: biochemical; details: compound 30 at 99 µM
T7 construct: made in house
T7 sequence (P78549 23-304): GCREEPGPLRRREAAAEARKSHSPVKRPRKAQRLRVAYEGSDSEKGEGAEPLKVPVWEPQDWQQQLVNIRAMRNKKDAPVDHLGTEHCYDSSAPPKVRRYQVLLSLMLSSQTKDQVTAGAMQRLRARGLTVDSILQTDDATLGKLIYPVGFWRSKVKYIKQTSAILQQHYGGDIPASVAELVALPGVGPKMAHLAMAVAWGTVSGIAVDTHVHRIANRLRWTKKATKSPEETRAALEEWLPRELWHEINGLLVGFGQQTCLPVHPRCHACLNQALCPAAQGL

TDG = biological target: T8, TDG (Homo sapiens, UniProt Q13569); test: as above; format: biochemical; details: compound 30 at 99 µM
T8 construct: made in house
T8 sequence (Q13569 whole entry, species assumed): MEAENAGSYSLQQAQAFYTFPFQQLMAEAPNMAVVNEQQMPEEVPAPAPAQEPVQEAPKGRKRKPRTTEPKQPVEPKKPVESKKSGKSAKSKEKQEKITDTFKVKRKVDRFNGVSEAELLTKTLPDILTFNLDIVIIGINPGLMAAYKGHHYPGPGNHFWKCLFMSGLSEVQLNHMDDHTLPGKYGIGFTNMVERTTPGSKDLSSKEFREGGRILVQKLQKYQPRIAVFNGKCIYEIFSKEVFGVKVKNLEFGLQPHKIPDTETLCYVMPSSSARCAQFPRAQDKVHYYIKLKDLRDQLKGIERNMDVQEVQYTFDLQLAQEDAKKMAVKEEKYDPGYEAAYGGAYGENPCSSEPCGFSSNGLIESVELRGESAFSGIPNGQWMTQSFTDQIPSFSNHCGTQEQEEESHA

MPG = biological target: T9, MPG (Homo sapiens, UniProt P29372); test: as above; format: biochemical; details: compound 30 at 99 µM
T9 construct: made in house
T9 sequence (P29372 18-298, species assumed): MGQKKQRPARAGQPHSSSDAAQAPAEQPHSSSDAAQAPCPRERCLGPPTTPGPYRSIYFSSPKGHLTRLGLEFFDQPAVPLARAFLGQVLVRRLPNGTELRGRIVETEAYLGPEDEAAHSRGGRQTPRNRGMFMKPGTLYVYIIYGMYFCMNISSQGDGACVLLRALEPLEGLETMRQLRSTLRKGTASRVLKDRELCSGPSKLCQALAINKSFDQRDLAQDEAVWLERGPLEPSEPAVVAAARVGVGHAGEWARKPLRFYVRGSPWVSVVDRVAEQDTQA

NEIL1 = biological target: T10, NEIL1 (Homo sapiens, UniProt Q96FI4); test: as above; format: biochemical; details: compound 30 at 99 µM
T10 construct: made in house
T10 sequence (Q96FI4 whole entry, species assumed): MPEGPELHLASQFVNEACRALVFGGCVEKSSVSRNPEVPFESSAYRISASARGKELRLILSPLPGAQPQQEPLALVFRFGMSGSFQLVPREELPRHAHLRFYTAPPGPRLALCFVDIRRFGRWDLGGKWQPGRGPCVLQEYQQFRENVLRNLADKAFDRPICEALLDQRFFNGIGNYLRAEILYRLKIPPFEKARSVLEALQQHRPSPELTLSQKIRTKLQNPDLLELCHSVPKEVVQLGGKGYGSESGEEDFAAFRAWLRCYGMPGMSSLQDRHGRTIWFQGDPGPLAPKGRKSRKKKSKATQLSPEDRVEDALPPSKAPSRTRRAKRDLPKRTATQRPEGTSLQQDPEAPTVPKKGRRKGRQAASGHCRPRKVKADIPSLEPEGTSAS

UNG = UNG (Homo sapiens, UniProt P13051); test: as above; format: biochemical; details: compound 30 at 99 µM
Sequence of UNG (P13051 94-313 limits assumed): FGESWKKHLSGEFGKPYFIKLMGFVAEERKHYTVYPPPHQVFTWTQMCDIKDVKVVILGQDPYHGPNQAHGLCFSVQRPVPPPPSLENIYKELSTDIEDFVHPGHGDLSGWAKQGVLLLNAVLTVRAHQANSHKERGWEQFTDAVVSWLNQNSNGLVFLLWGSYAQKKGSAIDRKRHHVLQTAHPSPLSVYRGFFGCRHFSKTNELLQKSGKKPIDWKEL

[7] = Microsomal stability assay; format: in vitro ADME, human; details: for half-life at 2 μM: human, liver microsomes
[8] = Kinetic solubility assay in PBS; format: physicochemical
S326C hOGG1 = biological target: T11, S326C hOGG1 (Homo sapiens, UniProt O15527, S326C); test: Fluorophore-quencher assay with OGG1 mutants; format: biochemical; details: 0.25 μM of 38, 50 nM S326C hOGG1
T11 construct: made in house
T11 sequence (O15527 whole entry S326C): as the sequence (O15527 whole entry) above, with S326C counted along it

[9] = tested on: C253Y, F319A, K249W or D268A hOGG1 (active site mutants); test: Fluorophore-quencher assay with OGG1 mutants; format: biochemical, human; details: 0.25 μM of 38, 10 nM enzyme
Lys249Trp mutant of OGG1 = biological target: T12, Lys249Trp mutant of OGG1 (Homo sapiens, UniProt O15527, K249W); test: Fluorophore-quencher assay with OGG1 mutants; format: biochemical; details: standard fluorescence assay
T12 construct: made in house
T12 sequence (O15527 whole entry K249W): as the sequence (O15527 whole entry) above, with K249W counted along it

[10] = Caco-2, in the presence of P-gp inhibitor (verapamil)

AC50 (μM) (OGG1 [3]): inactive
Compound: O=C1Nc2ccccc2C1=NCCc1c[nH]c2ccccc12 [NSC 136042]

AC50 (μM) (OGG1 [3]): inactive
Compound: OC1(Cc2ccccn2)c2ccccc2CC1c1ccccc1 (stereo not shown) [NSC 147943]

AC50 (μM) (OGG1 [3]): inactive
Compound: CCOc1ccccc1C1NC(=O)c2ccccc2N1 (stereo not shown) [NSC 158389]

AC50 (μM) (OGG1 [3]): inactive
Compound: O=C1NC(c2ccccc2Cl)Nc2ccccc21 (stereo not shown) [NSC 175633]

AC50 (μM) (OGG1 [3]): inactive
Compound: CC1(C)CC(=O)C2=C(C1)Nc1ccc(Cl)cc1NC2c1ccccc1 (stereo not shown) [NSC 186216]

AC50 (μM) (OGG1 [3]): inactive
Compound: O=C1CCCC2=C1C(c1ccncc1)Nc1ccccc1N2 (stereo not shown) [NSC 186218]

AC50 (μM) (OGG1 [3]): inactive
Compound: Cc1ccc2c(c1)Nc1ccccc1C(=O)N2 [NSC 202050]

AC50 (μM) (OGG1 [3]): inactive
Compound: Cl.N[C@@H](Cc1c[nH]c2ccccc12)C(=O)OCc1ccccc1 [NSC 202376]

AC50 (μM) (OGG1 [3]): inactive
Compound: Cc1nc(N)[nH]c(=O)c1CCCNc1cccc(C(F)(F)F)c1 [NSC 210448]

AC50 (μM) (OGG1 [3]): inactive
Compound: O=c1[nH]cc(Cc2cccc(OCc3ccccc3)c2)c(=O)[nH]1 [NSC 210777]

Second part, the compound before the results:

Compound: NCCc1c(-c2cccnc2)[nH]c2ccc(O)cc12 [Compound 30, 3-(2-Aminoethyl)-2-(pyridin-3-yl)-1H-indol-5-ol]
inhibition (NUDT15): No effect
inhibition (NUDT5): No effect
inhibition (NUDT22): No effect
selectivity [1]: >150-fold
effect on level of cross-linked product (Schiff-base formation) (OGG1 [2]): no discernible effect
AcLE (OGG1 [3]; (1.37/#heavy atoms) × pAC50): 0.456
AC50 (OGG1 [3]; AC50 (CI95%)): 580 nM
improvement of potency over 1 (OGG1 [3]; AC50 ratio): 10 fold
P app (AB) (Caco-2 cell line; [10]): 1.07 ×10⁻⁶ cm/s
P app (BA) (Caco-2 cell line; [10]): 1.87 ×10⁻⁶ cm/s
P-gp substrate assessment (Caco-2 cell line; decrease of efflux with verapamil): P-gp substrate
Papp A→B at 90 min, 10 µM [4]: 0.53 ×10⁻⁶ cm/s
Papp B→A at 90 min, 10 µM [4]: 2.15 ×10⁻⁶ cm/s
efflux ratio at 90 min, 10 μM ([4]; P app (B to A) / P app (A to B)): 4.1
restoration of AP-lyase activity of Lys249Ala mutant (K249A mutant OGG1): failed to restore AP-lyase activity
inhibition at 99 µM (MTH1): 34%
inhibition (APE1): No effect
toxicity in words ([5]; BJ-TERT and BJ-RAS cells, 30 at 100 μM over several days): no detectable toxicity
toxicity ([5]; incubation in BJ-RAS and BJ-TERT cell lines): >100 µM
stimulation of OGG1 AP lyase activity (incised substrate after 4 min) (OGG1 [6]): not significant
incision mode (OGG1 [6]): primarily induced β-elimination and β
inhibition at 99 µM (NTHL1): 25%
inhibition at 99 µM (TDG): 55%
inhibition at 99 µM (MPG): 17%
inhibition at 99 µM (NEIL1): 13%
inhibition at 99 µM (UNG): 31%
half-life at 2 μM ([7]; pH 7.4, human liver microsomes, read-out: t 1/2): 3.55 h
half-life at 2 μM ([7]; pH 7.4, human microsomes, read-out: microsomal half-life / metabolic stability): > 3.5 h
k el at 2 μM ([7]; pH 7.4, human liver microsomes): 5e-05 s⁻¹
microsomal CLint at 2 μM ([7]; pH 7.4, human liver microsomes): 8 µL/min/mg
higher aqueous solubility compared to TH10785 [8]: 58 fold
solubility at 2 h ([8]; phosphate-buffered saline, 25 °C, pH 7.4, aqueous buffer, kinetic from dmso stock, kinetic solubility in PBS buffer (pH 7.4), read-out: aq. solubility): > 300 µM

Compound: NCCc1c(-c2cccnc2)[nH]c2cc(F)c(O)cc12 [Compound 38, 3-(2-Aminoethyl)-6-fluoro-2-(pyridin-3-yl)-1H-indol-5-ol]
effect on AP-lyase activity of Ser326Cys mutant (S326C hOGG1): accelerated the AP-lyase activity
effect on level of cross-linked product (Schiff-base formation) (OGG1 [2]): no discernible effect
AC50 (OGG1 [3]; read-out: AC50 (CI95%)): 40 nM
stimulation of OGG1 AP lyase activity (incised substrate after 4 min) (OGG1 [6]): Stimulation of OGG1 AP lyase activity was observed
incision mode (OGG1 [6]): primarily induced β-elimination
restoration of activity in active site mutants [9]: did not restore activity
restoration of activity of Lys249Trp mutant (Lys249Trp mutant of OGG1): failed to restore activity

Compound: NCCc1c(-c2cncc(F)c2)[nH]c2ccc(O)cc12 [Compound 41, 3-(2-Aminoethyl)-2-(5-fluoropyridin-3-yl)-1H-indol-5-ol]
OGG1 activation, SAR result in words (OGG1 [3]): did not significantly affect potency
AC50 (OGG1 [3]; read-out: AC50 (CI95%)): 740 nM
restoration of AP-lyase activity of Lys249Ala mutant (K249A mutant OGG1): failed to restore AP-lyase activity

Compound: O=C1CCCCC1C(Nc1ccccc1)c1ccccc1 (stereo not shown) [NSC 123043]
AC50 (μM) (OGG1 [3]): inactive

Compound: NC(=O)C(O)c1c[nH]c2ccccc12 (stereo not shown) [NSC 128331]
AC50 (μM) (OGG1 [3]): inactive

Compound: Cc1[nH]c2ccccc2c(=O)c1CNCc1ccccc1 [NSC 133478]
AC50 (μM) (OGG1 [3]): inactive
